In ChEMBL document CHEMBL1926681, “Novel inhibitors of epidermal growth factor receptor: (4-(Arylamino)-7H-pyrrolo[2,3-d]pyrimidin-6-yl)(1H-indol-2-yl)methanones and (1H-indol-2-yl)(4-(phenylamino)thieno[2,3-d]pyrimidin-6-yl)methanones” (Bioorg Med Chem, 2012):
One block for each molecule: values may come before it. The source made the active and inactive calls. The calls are words filed in the database; no cut-off is given here.

How the values were obtained:
[1] = target: Tyrosine-protein kinase ABL1 (Homo sapiens) (UniProt P00519); assay: Inhibition of ABL1 using poly(Ala, Glu, Lys, Tyr) as substrate and [gamma33P]ATP at 1 uM after 60 mins by scintillation counting
Chain of Tyrosine-protein kinase ABL1 (Homo sapiens) (P00519 whole entry): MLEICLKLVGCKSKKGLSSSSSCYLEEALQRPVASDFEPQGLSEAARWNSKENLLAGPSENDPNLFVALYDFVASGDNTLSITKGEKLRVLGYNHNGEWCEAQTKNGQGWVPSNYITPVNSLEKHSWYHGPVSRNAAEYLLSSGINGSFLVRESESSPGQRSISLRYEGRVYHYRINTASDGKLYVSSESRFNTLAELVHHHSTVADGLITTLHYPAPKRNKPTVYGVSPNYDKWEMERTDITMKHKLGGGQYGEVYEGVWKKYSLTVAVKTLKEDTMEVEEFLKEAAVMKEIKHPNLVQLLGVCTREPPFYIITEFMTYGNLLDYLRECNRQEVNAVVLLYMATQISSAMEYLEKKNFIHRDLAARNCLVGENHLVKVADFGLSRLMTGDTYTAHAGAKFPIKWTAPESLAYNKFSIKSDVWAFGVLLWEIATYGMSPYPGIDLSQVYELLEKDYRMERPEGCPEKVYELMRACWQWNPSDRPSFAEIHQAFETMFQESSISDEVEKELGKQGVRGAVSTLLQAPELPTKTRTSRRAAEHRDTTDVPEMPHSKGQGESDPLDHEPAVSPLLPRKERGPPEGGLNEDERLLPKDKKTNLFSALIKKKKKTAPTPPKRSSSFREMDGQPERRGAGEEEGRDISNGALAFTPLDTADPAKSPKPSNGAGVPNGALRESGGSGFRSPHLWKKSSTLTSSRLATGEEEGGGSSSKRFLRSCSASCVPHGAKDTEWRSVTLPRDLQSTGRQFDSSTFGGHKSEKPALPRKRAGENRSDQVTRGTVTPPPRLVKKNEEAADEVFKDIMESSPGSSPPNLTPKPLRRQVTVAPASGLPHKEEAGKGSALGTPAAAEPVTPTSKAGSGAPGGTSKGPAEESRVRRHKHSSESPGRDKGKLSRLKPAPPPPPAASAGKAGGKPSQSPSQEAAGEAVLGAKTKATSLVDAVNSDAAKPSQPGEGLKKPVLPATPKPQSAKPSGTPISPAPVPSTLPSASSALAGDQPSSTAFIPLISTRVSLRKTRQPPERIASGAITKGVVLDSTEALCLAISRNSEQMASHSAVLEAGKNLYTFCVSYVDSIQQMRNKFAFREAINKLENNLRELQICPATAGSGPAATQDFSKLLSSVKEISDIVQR

[2] = target: Hepatocyte growth factor receptor (Homo sapiens) (UniProt P08581); assay: Inhibition of MET using poly(Ala, Glu, Lys, Tyr) as substrate and [gamma33P]ATP at 1 uM after 60 mins by scintillation counting
Chain of Hepatocyte growth factor receptor (Homo sapiens) (P08581 whole entry): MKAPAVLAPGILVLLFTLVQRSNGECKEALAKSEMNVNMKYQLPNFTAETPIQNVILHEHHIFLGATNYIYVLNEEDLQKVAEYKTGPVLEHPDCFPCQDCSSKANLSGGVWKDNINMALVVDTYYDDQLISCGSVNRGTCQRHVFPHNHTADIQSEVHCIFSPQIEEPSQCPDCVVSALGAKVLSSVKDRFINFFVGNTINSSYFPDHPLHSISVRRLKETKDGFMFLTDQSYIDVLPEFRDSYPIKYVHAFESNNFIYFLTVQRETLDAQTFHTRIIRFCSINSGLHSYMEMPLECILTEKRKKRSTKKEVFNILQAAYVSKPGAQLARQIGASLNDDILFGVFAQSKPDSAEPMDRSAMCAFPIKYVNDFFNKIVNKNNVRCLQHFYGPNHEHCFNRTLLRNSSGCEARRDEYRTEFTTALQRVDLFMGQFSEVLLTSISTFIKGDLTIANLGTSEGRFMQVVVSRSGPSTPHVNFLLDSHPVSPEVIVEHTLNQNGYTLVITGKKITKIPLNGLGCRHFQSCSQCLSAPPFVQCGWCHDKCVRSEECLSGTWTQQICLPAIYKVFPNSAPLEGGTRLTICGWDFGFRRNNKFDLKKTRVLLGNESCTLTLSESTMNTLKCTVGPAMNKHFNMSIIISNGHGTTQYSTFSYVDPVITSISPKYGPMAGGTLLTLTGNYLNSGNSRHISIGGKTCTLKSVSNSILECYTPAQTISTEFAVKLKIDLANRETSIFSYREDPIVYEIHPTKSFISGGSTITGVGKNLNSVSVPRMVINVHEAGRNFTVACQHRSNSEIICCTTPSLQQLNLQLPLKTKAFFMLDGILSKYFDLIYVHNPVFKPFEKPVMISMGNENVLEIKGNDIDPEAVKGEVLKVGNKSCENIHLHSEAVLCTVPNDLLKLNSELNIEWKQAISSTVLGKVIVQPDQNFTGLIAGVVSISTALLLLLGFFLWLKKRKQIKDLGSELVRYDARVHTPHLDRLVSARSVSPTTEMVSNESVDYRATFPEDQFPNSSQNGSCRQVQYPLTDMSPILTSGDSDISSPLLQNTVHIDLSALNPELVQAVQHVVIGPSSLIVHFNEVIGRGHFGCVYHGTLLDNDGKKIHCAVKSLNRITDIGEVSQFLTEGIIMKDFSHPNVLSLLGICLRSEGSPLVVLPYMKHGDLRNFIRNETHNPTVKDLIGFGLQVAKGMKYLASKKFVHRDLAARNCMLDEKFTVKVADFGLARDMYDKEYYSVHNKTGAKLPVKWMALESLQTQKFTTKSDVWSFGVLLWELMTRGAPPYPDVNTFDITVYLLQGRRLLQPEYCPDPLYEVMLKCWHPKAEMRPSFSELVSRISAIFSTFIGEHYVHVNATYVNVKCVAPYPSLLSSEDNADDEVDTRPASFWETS

[3] = Cytotoxicity against human BXF 1218L cells after 4 days by propidium iodide staining-based fluorometric analysis; type: functional, cell-based; details: 96 h
[4] = Cytotoxicity against human BXF 1352L cells after 4 days by propidium iodide staining-based fluorometric analysis; type: functional, cell-based; details: 96 h
[5] = Cytotoxicity against human BXF T24 cells after 4 days by propidium iodide staining-based fluorometric analysis; type: functional, cell-based; details: T-24, 96 h
[6] = Cytotoxicity against human CXF 269L cells after 4 days by propidium iodide staining-based fluorometric analysis; type: functional, cell-based; details: 96 h
[7] = Cytotoxicity against human DIFI cells after 4 days by propidium iodide staining-based fluorometric analysis; type: functional, cell-based; details: 96 h
[8] = tested on: HCT-116; assay: Cytotoxicity against human HCT116 cells after 4 days by propidium iodide staining-based fluorometric analysis; type: functional, cell-based; details: HCT-116, 96 h
[9] = tested on: HT-29; assay: Cytotoxicity against human HT-29 cells after 4 days by propidium iodide staining-based fluorometric analysis; type: functional, cell-based; details: HT-29, 96 h
[10] = tested on: RKO; assay: Cytotoxicity against human RKO cells after 4 days by propidium iodide staining-based fluorometric analysis; type: functional, cell-based; details: 96 h
[11] = Cytotoxicity against human GXF251L cells after 4 days by propidium iodide staining-based fluorometric analysis; type: functional, cell-based; details: GXF 251L, 96 h
[12] = tested on: MKN-45; assay: Cytotoxicity against human MKN45 cells after 4 days by propidium iodide staining-based fluorometric analysis; type: functional, cell-based; details: MKN-45, 96 h
[13] = tested on: CAL-27; assay: Cytotoxicity against human CAL27 cells after 4 days by propidium iodide staining-based fluorometric analysis; type: functional, cell-based; details: CAL-27, 96 h
[14] = Cytotoxicity against human LIXF 575L cells after 4 days by propidium iodide staining-based fluorometric analysis; type: functional, cell-based; details: 96 h
[15] = tested on: NCI-H460; assay: Cytotoxicity against human H460 cells after 4 days by propidium iodide staining-based fluorometric analysis; type: functional, cell-based; details: NCI-H460, 96 h
[16] = Cytotoxicity against human LXFA 289L cells after 4 days by propidium iodide staining-based fluorometric analysis; type: functional, cell-based; details: 96 h
[17] = Cytotoxicity against human LXFA 526L cells after 4 days by propidium iodide staining-based fluorometric analysis; type: functional, cell-based; details: 96 h
[18] = Cytotoxicity against human LXFA 629L cells after 4 days by propidium iodide staining-based fluorometric analysis; type: functional, cell-based; details: 96 h
[19] = Cytotoxicity against human LXFL 1121L cells after 4 days by propidium iodide staining-based fluorometric analysis; type: functional, cell-based; details: 96 h
[20] = Cytotoxicity against human LXFL 529L cells after 4 days by propidium iodide staining-based fluorometric analysis; type: functional, cell-based; details: 96 h
[21] = Cytotoxicity against human MAXF 401NL cells after 4 days by propidium iodide staining-based fluorometric analysis; type: functional, cell-based; details: 96 h
[22] = tested on: MCF7; assay: Cytotoxicity against human MCF7 cells after 4 days by propidium iodide staining-based fluorometric analysis; type: functional, cell-based; details: MCF7, 96 h
[23] = Cytotoxicity against human MDA231 cells after 4 days by propidium iodide staining-based fluorometric analysis; type: functional, cell-based; details: MDA-MB-231, 96 h
[24] = Cytotoxicity against human MEXF 1341L cells after 4 days by propidium iodide staining-based fluorometric analysis; type: functional, cell-based; details: 96 h
[25] = Cytotoxicity against human MEXF 276L cells after 4 days by propidium iodide staining-based fluorometric analysis; type: functional, cell-based; details: MEXF276L, 96 h
[26] = Cytotoxicity against human MEXF 462NL cells after 4 days by propidium iodide staining-based fluorometric analysis; type: functional, cell-based; details: 96 h
[27] = Cytotoxicity against human OVXF 899L cells after 4 days by propidium iodide staining-based fluorometric analysis; type: functional, cell-based; details: 96 h
[28] = tested on: OVCAR-3; assay: Cytotoxicity against human OVCAR3 cells after 4 days by propidium iodide staining-based fluorometric analysis; type: functional, cell-based; details: OVCAR-3, 96 h
[29] = Cytotoxicity against human PAXF 1657L cells after 4 days by propidium iodide staining-based fluorometric analysis; type: functional, cell-based; details: 96 h
[30] = Cytotoxicity against human PAXF 546L cells after 4 days by propidium iodide staining-based fluorometric analysis; type: functional, cell-based; details: 96 h
[31] = tested on: PANC-1; assay: Cytotoxicity against human PANC1 cells after 4 days by propidium iodide staining-based fluorometric analysis; type: functional, cell-based; details: PANC-1, 96 h
[32] = tested on: CWR22R; assay: Cytotoxicity against human 22Rv1 cells after 4 days by propidium iodide staining-based fluorometric analysis; type: functional, cell-based; details: 22Rv1, 96 h
[33] = tested on: DU-145; assay: Cytotoxicity against human DU145 cells after 4 days by propidium iodide staining-based fluorometric analysis; type: functional, cell-based; details: DU-145, 96 h
[34] = tested on: LNCaP; assay: Cytotoxicity against human LNCAP cells after 4 days by propidium iodide staining-based fluorometric analysis; type: functional, cell-based; details: 96 h
[35] = Cytotoxicity against human PC3M cells after 4 days by propidium iodide staining-based fluorometric analysis; type: functional, cell-based; details: PC-3M, 96 h
[36] = Cytotoxicity against human PXF 1118L cells after 4 days by propidium iodide staining-based fluorometric analysis; type: functional, cell-based; details: 96 h
[37] = Cytotoxicity against human PXF 1752L cells after 4 days by propidium iodide staining-based fluorometric analysis; type: functional, cell-based; details: 96 h
[38] = Cytotoxicity against human PXF 698L cells after 4 days by propidium iodide staining-based fluorometric analysis; type: functional, cell-based; details: 96 h
[39] = Cytotoxicity against human RXF 1781L cells after 4 days by propidium iodide staining-based fluorometric analysis; type: functional, cell-based; details: 96 h
[40] = Cytotoxicity against human RXF 393NL cells after 4 days by propidium iodide staining-based fluorometric analysis; type: functional, cell-based; details: 96 h
[41] = Cytotoxicity against human RXF 486L cells after 4 days by propidium iodide staining-based fluorometric analysis; type: functional, cell-based; details: 96 h
[42] = tested on: SAOS-2; assay: Cytotoxicity against human Saos2 cells after 4 days by propidium iodide staining-based fluorometric analysis; type: functional, cell-based; details: SAOS-2, 96 h
[43] = tested on: TE-671; assay: Cytotoxicity against human TE671 cells after 4 days by propidium iodide staining-based fluorometric analysis; type: functional, cell-based; details: TE-671, 96 h
[44] = Cytotoxicity against human UXF 1138L cells after 4 days by propidium iodide staining-based fluorometric analysis; type: functional, cell-based; details: 96 h

inhibition [1]: inactive | inhibition [2]: inactive
SMILES: CS(=O)(=O)CCNCc1ccc(-c2ccc3ncnc(Nc4ccc(OCc5cccc(F)c5)c(Cl)c4)c3c2)o1 [LAPATINIB]
IC50 [3]: 11.8 µM | IC50 [4]: 11.5 µM | IC50 [5]: 9.65 µM | IC50 [6]: 8.36 µM | IC50 [7]: 235 nM | IC50 [8]: 13.1 µM | IC50 [9]: 4.62 µM | IC50 [10]: 5.35 µM | IC50 [11]: 1480 nM | IC50 [12]: 11.5 µM | IC50 [13]: 530 nM | IC50 [14]: 7.18 µM | IC50 [15]: 13.5 µM | IC50 [16]: 5.79 µM | IC50 [17]: 4.21 µM | IC50 [18]: 2870 nM | IC50 [19]: 7.73 µM | IC50 [20]: 3.51 µM | IC50 [21]: 5.8 µM | IC50 [22]: 4.83 µM | IC50 [23]: 7.7 µM | IC50 [24]: 4.85 µM | IC50 [25]: 11.4 µM | IC50 [26]: 10.1 µM | IC50 [27]: 3.35 µM | IC50 [28]: 13.4 µM | IC50 [29]: 11.1 µM | IC50 [30]: 6.12 µM | IC50 [31]: 8.12 µM | IC50 [32]: 6.06 µM | IC50 [33]: 2990 nM | IC50 [34]: 3.68 µM | IC50 [35]: 4.55 µM | IC50 [36]: 6.86 µM | IC50 [37]: 9.46 µM | IC50 [38]: 9.49 µM | IC50 [39]: 7.67 µM | IC50 [40]: 7.77 µM | IC50 [41]: 9.1 µM | IC50 ([42]; read-out: IC50): 9.38 µM | IC50 [43]: 11 µM | IC50 [44]: 4.4 µM

inhibition [1]: inactive | inhibition [2]: inactive
SMILES: C#Cc1cccc(Nc2ncnc3cc(OCCOC)c(OCCOC)cc23)c1 [ERLOTINIB]
IC50 [3]: 96 µM | IC50 [4]: 87.8 µM | IC50 [5]: 13.9 µM | IC50 [6]: 16 µM | IC50 [7]: 140 nM | IC50 [8]: 65.8 µM | IC50 [9]: 100 µM | IC50 [10]: 100 µM | IC50 [11]: 369 nM | IC50 [12]: 76.7 µM | IC50 [13]: 239 nM | IC50 [14]: 47.2 µM | IC50 [15]: 74.3 µM | IC50 [16]: 1.78 µM | IC50 [17]: 100 µM | IC50 [18]: 660 nM | IC50 [19]: 34.6 µM | IC50 [20]: 17.4 µM | IC50 [21]: 25 µM | IC50 [22]: 100 µM | IC50 [23]: 34.5 µM | IC50 [24]: 30.1 µM | IC50 [25]: 18.6 µM | IC50 [26]: 100 µM | IC50 [27]: 8.77 µM | IC50 [28]: 100 µM | IC50 [29]: 64.3 µM | IC50 [30]: 10 µM | IC50 [31]: 75.8 µM | IC50 [32]: 100 µM | IC50 [33]: 966 nM | IC50 [34]: 6.63 µM | IC50 [35]: 17.2 µM | IC50 [36]: 76.7 µM | IC50 [37]: 31.6 µM | IC50 [38]: 36.4 µM | IC50 [39]: 76.7 µM | IC50 [40]: 45.6 µM | IC50 [41]: 10 µM | IC50 [42]: 21 µM | IC50 [43]: 100 µM | IC50 [44]: 24.5 µM
